Assay [1] has as its target Hypoxia inducible factors; HIF-1-alpha, HIF-2-alpha (Homo sapiens, UniProt Q16665+Q99814). Nature of the assay: Inhibition of hypoxia induced HIF1 transcriptional activity in human Hep3B cells by cell-based HRE reporter assay. In kind it is functional. To be noted: hep 3b2.
In the next assay the test system is AGS. The assay can be described thus: cells. To be noted: Homo sapiens.
Assay [2] addresses Hypoxia-inducible factor 1-alpha (Homo sapiens) (UniProt Q16665). Nature of the assay: Inhibition of hypoxia-induced HIF1-alpha accumulation in human Hep3B cells. The format is functional, cell-based. To be noted: Hep 3B2.
A short description of assay [3]: Suppression of hypoxia-induced HIF1-alpha mRNA expression in human Hep3B cells. In kind it is functional, cell-based. To be noted: Hep 3B2.
A short description of assay [4]: Suppression of hypoxia-induced VEGF mRNA expression in human Hep3B cells. The format is functional, cell-based. To be noted: Hep 3B2.
Assay [5] is described as follows: Suppression of hypoxia-induced EPO mRNA expression in human Hep3B cells. In kind it is functional, cell-based. To be noted: Hep 3B2.
Assay [6] in a line: Suppression of hypoxia-induced EPO mRNA expression in human Hep3B cells at 10 uM. The format is functional, cell-based. The following applies: Hep 3B2.
A short description of assay [7]: Suppression of hypoxia-induced VEGF mRNA expression in human Hep3B cells at 10 uM. In kind it is functional, cell-based. The following applies: Hep 3B2.

The source made the active and inactive calls. The rule behind the calls is not given here.

Chain of Hypoxia-inducible factor 1-alpha (Homo sapiens) (Q16665 whole entry, looked up): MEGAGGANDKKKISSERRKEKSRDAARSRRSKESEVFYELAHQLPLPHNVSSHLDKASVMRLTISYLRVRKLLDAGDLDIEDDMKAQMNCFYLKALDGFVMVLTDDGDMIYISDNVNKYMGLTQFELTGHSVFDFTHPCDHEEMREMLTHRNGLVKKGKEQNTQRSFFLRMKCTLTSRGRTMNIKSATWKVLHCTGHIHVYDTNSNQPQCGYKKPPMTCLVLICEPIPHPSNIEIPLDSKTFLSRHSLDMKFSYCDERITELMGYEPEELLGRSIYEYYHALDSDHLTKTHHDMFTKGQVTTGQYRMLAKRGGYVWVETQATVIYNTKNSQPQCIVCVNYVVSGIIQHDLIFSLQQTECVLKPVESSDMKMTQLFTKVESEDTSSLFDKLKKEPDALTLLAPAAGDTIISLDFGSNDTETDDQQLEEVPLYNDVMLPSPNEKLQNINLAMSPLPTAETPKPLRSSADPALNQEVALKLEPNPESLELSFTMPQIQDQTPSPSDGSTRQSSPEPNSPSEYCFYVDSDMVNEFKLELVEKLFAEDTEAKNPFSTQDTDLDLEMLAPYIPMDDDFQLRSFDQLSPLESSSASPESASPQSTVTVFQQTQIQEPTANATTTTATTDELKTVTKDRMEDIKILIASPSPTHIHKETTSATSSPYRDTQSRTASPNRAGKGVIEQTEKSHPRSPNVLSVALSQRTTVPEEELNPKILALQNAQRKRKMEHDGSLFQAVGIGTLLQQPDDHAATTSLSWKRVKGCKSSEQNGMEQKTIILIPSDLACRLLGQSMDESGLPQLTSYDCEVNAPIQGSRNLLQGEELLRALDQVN
Description for AGS: Inhibition of hypoxia induced HIF1 transcriptional activity in human AGS cells by cell-based HRE reporter assay

Consider `O=C(COc1ccc(C23CC4CC(CC(C4)C2)C3)cc1)Nc1ccc(C(=O)O)cc1`, for which the IC50 in assay [1] is greater than 30 µM.

As to `CN(C)C(=O)c1ccc(O)c(NC(=O)COc2ccc(C34CC5CC(CC(C5)C3)C4)cc2)c1`, the IC50 (in assay [1]; with AGS) was greater than 30 µM throughout.

Turning to `Cc1ccc(OCC(=O)Nc2cccc(C(N)=O)c2)cc1`, the IC50 (in assay [1]; in the assay with AGS) was greater than 30 µM throughout.

Take `O=C(COc1ccc(C23CC4CC(CC(C4)C2)C3)cc1)Nc1cc(C(=O)O)ccc1O`: the IC50 in assay [1] worked out at 0.4 µM; with AGS, 0.35 µM. Further, in assay [2], the Activity result was “Dose-dependent effect”.

With `NC(=O)c1ccc(O)c(NC(=O)COc2ccc(C34CC5CC(CC(C5)C3)C4)cc2)c1`, the results for the IC50 (in assay [1]; in the assay on AGS) were greater than 30 µM and 1.5 µM, respectively.

In assay [1], `O=C(COc1ccc(C23CC4CC(CC(C4)C2)C3)cc1)Nc1ccccc1C(=O)O` returned an IC50 of 10.5 µM.

As to `O=C(COc1ccc(C23CC4CC(CC(C4)C2)C3)cc1)Nc1cccc(C(=O)O)c1`, the figures for the IC50 (in assay [1]; in the assay with AGS) were 5 µM and 2.5 µM, respectively. Further, the Activity result in assay [2], in assay [4] and in assay [5] was “Dose-dependent effect” in each case. Besides, the outcome in assay [3] was inactive.

As to `CN(C)CCNC(=O)c1ccc(O)c(NC(=O)COc2ccc(C34CC5CC(CC(C5)C3)C4)cc2)c1`, the IC50 was greater than 30 µM in assay [1] and 3 µM in the assay on AGS.

As to `O=C(COc1ccc(C23CC4CC(CC(C4)C2)C3)cc1)Nc1cccc(C(=O)NCCc2ccncc2)c1`, the IC50 in assay [1] was 8.2 µM; in the assay with AGS, 3.1 µM.

On to `CC(C)(C)c1ccc(OCC(=O)Nc2cccc(C(N)=O)c2)cc1`, for which the IC50 (in assay [1]; in the assay with AGS) was greater than 30 µM throughout.

With `O=C(COc1ccc(-c2cccs2)cc1)Nc1cccc(C(=O)O)c1`, the IC50 (in assay [1]; with AGS) was greater than 30 µM each time.

In the case of `NC(=O)c1cccc(NC(=O)COc2ccccc2)c1`, the IC50 (in assay [1]; in the assay on AGS) was greater than 30 µM each time.

In the case of `O=C(COc1ccccc1)Nc1cccc(C(=O)O)c1`, the IC50 (in assay [1]; with AGS) was greater than 30 µM each time.

As for `COC(=O)c1ccc(O)c(NC(=O)COc2ccc(C34CC5CC(CC(C5)C3)C4)cc2)c1`, the IC50 in assay [1] stood at 2.6 µM; with AGS, 0.7 µM. Also, the Activity result in assay [2], in assay [4] and in assay [5] was “Dose-dependent effect” in each case. Also, in assay [3], the outcome was inactive. In addition, the result in assay [6] and in assay [7] was Active.

As for `NC(=O)c1cccc(NC(=O)COc2ccc(C34CC5CC(CC(C5)C3)C4)cc2)c1`, the results for the IC50 (in assay [1]; in the assay with AGS) were 4.3 µM and 1 µM, respectively. Besides, the Activity entry in assay [2] is “Dose-dependent effect”.

`NC(=O)c1cccc(NC(=O)COc2ccc([N+](=O)[O-])cc2)c1`: the IC50 (in assay [1]; with AGS) was greater than 30 µM each time.

As to `OCc1ccc(-c2nn(Cc3ccccc3)c3ccccc23)o1`, in the assay with AGS, the midpoint of inhibition, the IC50, lay at 2 µM.

Take `Cc1ccc(OCC(=O)Nc2cccc(C(=O)O)c2)cc1`: the IC50 (in assay [1]; in the assay on AGS) was greater than 30 µM in each case.

Turning to `O=C(COc1ccc(C23CC4CC(CC(C4)C2)C3)cc1)Nc1cccc(C(=O)Nc2ccc(Cl)cc2)c1`, the IC50 in assay [1] is greater than 30 µM; with AGS it was 9.5 µM.

`O=C(COc1ccc(C23CC4CC(CC(C4)C2)C3)cc1)Nc1cc(C(=O)NCc2ccco2)ccc1O`: the IC50 in assay [1] is 12.6 µM; in the assay on AGS it was 5.9 µM.

On to `COc1cccc(-c2ccc(OCC(=O)Nc3cccc(C(=O)O)c3)cc2)c1`, for which the 50% inhibitory concentration (IC50) in assay [1] was greater than 30 µM; in the assay with AGS it was 35 µM.

Consider `CC(C)(C)c1ccc(OCC(=O)Nc2cccc(C(=O)O)c2)cc1`, for which the IC50 came to 29 µM in assay [1] and 9.5 µM with AGS.

With `CC(=O)c1ccc(OCC(=O)Nc2cccc(C(=O)O)c2)cc1`, the IC50 (in assay [1]; in the assay with AGS) was greater than 30 µM throughout.

On to `Cc1ccc(-c2ccc(OCC(=O)Nc3cccc(C(=O)O)c3)cc2)cc1`, for which the IC50 was 23.2 µM in assay [1] and greater than 30 µM in the assay with AGS.

Consider `O=C(COc1ccc(F)cc1)Nc1cccc(C(=O)O)c1`, for which the IC50 (in assay [1]; in the assay with AGS) was greater than 30 µM throughout.

For the compound `O=C(COc1ccc(-c2cccc([N+](=O)[O-])c2)cc1)Nc1cccc(C(=O)O)c1`, the IC50 (in assay [1]; in the assay with AGS) was greater than 30 µM throughout.

Regarding `O=C(COc1ccc(C23CC4CC(CC(C4)C2)C3)cc1)Nc1cccc(C(=O)NCc2ccco2)c1`, the IC50 in assay [1] stood at 14.08 µM; with AGS, 2.1 µM.

Turning to `O=C(COc1ccc(Cl)cc1)Nc1cccc(C(=O)O)c1`, the IC50 is greater than 30 µM in assay [1] and 10 µM in the assay with AGS.

As for `COC(=O)c1cccc(NC(=O)COc2ccc(C34CC5CC(CC(C5)C3)C4)cc2)c1`, the half-maximal inhibitory concentration (IC50) stood at 9.9 µM in assay [1] and 7.4 µM in the assay on AGS.

Turning to `O=C(COc1ccc(I)cc1)Nc1cccc(C(=O)O)c1`, the IC50 in assay [1] was 7.2 µM; with AGS, 3.5 µM.

Consider `O=C(COc1ccc(Br)cc1)Nc1cccc(C(=O)O)c1`, for which the IC50 in assay [1] was greater than 30 µM; in the assay with AGS, 1.6 µM.

Turning to `O=C(COc1ccc(C23CC4CC(CC(C4)C2)C3)cc1)Nc1cccc(C(=O)Nc2ccc3ccccc3c2)c1`, the IC50 (in assay [1]; in the assay with AGS) was greater than 30 µM throughout.

The values above are taken from ChEMBL document CHEMBL1142965, “(Aryloxyacetylamino)benzoic acid analogues: A new class of hypoxia-inducible factor-1 inhibitors” (J Med Chem, 2007).
